{"source": "patent US20070089847A1", "about": "“Anti-microbial paper products having a substituted 1,2-dihydroquinoline” (Novus International, Inc., priority 2005, published 2007)", "note": "Structures can show the parent of a compound that is named as a salt.", "data": [{"system": "Aspergillus niger ATCC 9642 and Aspergillus flavus ATCC 9643", "experiment": "In vitro disk assay of antifungal properties, agar plates containing test agent (Example 3)", "format": "cell-based", "settings": "48 hours at 25° C.", "protocol": "In this assay, paper disks were soaked in a fungal solution and placed on the surface of agar plates containing different concentration of the test agent. The radius of fungal growth radiating from each disk was considered indicative of the degree of inhibition by the agent relative to a control.\nThe test agents were diluted in DMSO or water and tested at several different concentrations. The test agents were added to the agar solution after sterilization, but prior to solidification. […] The plates were incubated for 48 hours at 25° C. The zones of fungal growth (or no growth) were analyzed and the minimum total inhibitory concentration (%) was estimated for each agent.", "units": {"Minimum Total Inhibitory Concentration (%)": "%"}, "values": [{"compound": "O=C(O)C(O)C(O)C(=O)O", "note": "(centres unmarked) [Tartaric Acid]", "Minimum Total Inhibitory Concentration (%)": ">0.5"}, {"compound": "CCCOC(=O)c1cc(O)c(O)c(O)c1", "note": "[Propyl Gallate]", "Minimum Total Inhibitory Concentration (%)": ">0.5"}, {"compound": "O=CC=Cc1ccccc1", "note": "[Cinnamaldehyde]", "Minimum Total Inhibitory Concentration (%)": "<0.005"}, {"compound": "CCCCCCCCCC=O", "note": "[Decanal]", "Minimum Total Inhibitory Concentration (%)": ">0.5"}, {"compound": "O=C(O)/C=C/C(=O)O", "note": "[Fumaric Acid]", "Minimum Total Inhibitory Concentration (%)": ">0.5"}, {"compound": "CCC(=O)O", "note": "[Proprionic Acid]", "Minimum Total Inhibitory Concentration (%)": 0.2}, {"compound": "CC(=O)C(C)=O", "note": "[Diacetyl]", "Minimum Total Inhibitory Concentration (%)": 0.1}, {"compound": "O=S(=O)(O)O", "note": "[Sulfuric Acid]", "Minimum Total Inhibitory Concentration (%)": 0.1}, {"compound": "NCC(=O)O", "note": "[Glycine]", "Minimum Total Inhibitory Concentration (%)": ">0.5"}, {"compound": "O=C(O)/C=C\\C(=O)O", "note": "[Maleic Acid]", "Minimum Total Inhibitory Concentration (%)": 0.5}, {"compound": "CC(O)C(=O)O", "note": "(centres unmarked) [Lactic Acid]", "Minimum Total Inhibitory Concentration (%)": ">0.5"}, {"compound": "CCCCCCCCCCCCCCCC(=O)OC[C@H](O)[C@H]1OC(=O)C(O)=C1O", "note": "[Ascorbyl Palmitate]", "Minimum Total Inhibitory Concentration (%)": ">0.5"}, {"compound": "CCCCCCCCCCCCOC(=O)CCSCCC(=O)OCCCCCCCCCCCC", "note": "[Dilauryl Thiodipropionate]", "Minimum Total Inhibitory Concentration (%)": ">0.5"}, {"compound": "C=C(C)C1CC=C(C)C(=O)C1", "note": "(centres unmarked) [Carvone]", "Minimum Total Inhibitory Concentration (%)": 0.1}, {"compound": "CC(C)=CCCC(C)=CC=O", "note": "[Citral]", "Minimum Total Inhibitory Concentration (%)": 0.1}, {"compound": "CC(C)(C)c1cc(O)ccc1O", "note": "[TBHQ (Tert-ButylHydroQuinone), Tert-ButylHydroQuinone]", "Minimum Total Inhibitory Concentration (%)": 0.1}, {"compound": "CSCCC(O)C(=O)O", "note": "(centres unmarked) [2-hydroxy-4(methylthio)butanoic acid]", "Minimum Total Inhibitory Concentration (%)": ">0.5"}, {"compound": "O=S([O-])([O-])=S.[Na+].[Na+]", "note": "[Sodium Thiosulfate]", "Minimum Total Inhibitory Concentration (%)": ">0.5"}, {"compound": "COC(=O)c1ccc(O)cc1", "note": "[Methyl Paraben]", "Minimum Total Inhibitory Concentration (%)": 0.5}, {"compound": "O=S([O-])O.[Na+]", "note": "[Sodium Bisulfite]", "Minimum Total Inhibitory Concentration (%)": 0.2}, {"compound": "CC(O)C(=O)[O-].[Na+]", "note": "(centres unmarked) [Sodium Lactate]", "Minimum Total Inhibitory Concentration (%)": ">0.5"}, {"compound": "O=C(O)c1cc(O)c(O)c(O)c1", "note": "[Gallic Acid]", "Minimum Total Inhibitory Concentration (%)": ">0.5"}, {"compound": "CCCCCCCCOC(=O)c1cc(O)c(O)c(O)c1", "note": "[Octyl Gallate]", "Minimum Total Inhibitory Concentration (%)": ">0.5"}, {"compound": "NCCCC[C@H](N)C(=O)O", "note": "[Lysine]", "Minimum Total Inhibitory Concentration (%)": ">0.5"}, {"compound": "O=Cc1ccccc1", "note": "[Benzaldehyde]", "Minimum Total Inhibitory Concentration (%)": 0.5}, {"compound": "Cl", "note": "[HCl]", "Minimum Total Inhibitory Concentration (%)": 0.5}, {"compound": "O=C1CCO1", "note": "[Beta-Propiolactone]", "Minimum Total Inhibitory Concentration (%)": 0.1}, {"compound": "CSCC[C@H](N)C(=O)O", "note": "[Methionine]", "Minimum Total Inhibitory Concentration (%)": ">0.5"}, {"compound": "CCCC(=O)O", "note": "[Butyric Acid]", "Minimum Total Inhibitory Concentration (%)": 0.2}, {"compound": "C=CCc1ccc(O)c(OC)c1", "note": "[Eugenol]", "Minimum Total Inhibitory Concentration (%)": 0.05}, {"compound": "O=C(O)CC(O)(CC(=O)O)C(=O)O", "note": "[Citric Acid]", "Minimum Total Inhibitory Concentration (%)": ">0.5"}, {"compound": "CCCCCCCCCCCCOC(=O)c1cc(O)c(O)c(O)c1", "note": "[Dodecyl Gallate]", "Minimum Total Inhibitory Concentration (%)": ">0.5"}, {"compound": "CC(=O)Oc1c(C)c(C)c2c(c1C)CCC(C)(CCC[C@H](C)CCC[C@H](C)CCCC(C)C)O2", "note": "(stereo partly drawn) [Alpha Tocopherol Acetate]", "Minimum Total Inhibitory Concentration (%)": ">0.5"}, {"compound": "O=C(O)CN(CCN(CC(=O)O)CC(=O)O)CC(=O)O", "note": "[EDTA]", "Minimum Total Inhibitory Concentration (%)": 0.02}, {"compound": "O=C(O)CCCCC1CCSS1", "note": "(stereo not drawn) [Alpha Lipoic Acid]", "Minimum Total Inhibitory Concentration (%)": 0.1}, {"compound": "CC(=O)[O-].[K+]", "note": "[Potassium Acetate]", "Minimum Total Inhibitory Concentration (%)": ">0.5"}, {"compound": "CC(=O)[O-].CC(=O)[O-].[Ca+2]", "note": "[Calcium Acetate]", "Minimum Total Inhibitory Concentration (%)": ">0.5"}, {"compound": "O=Cc1ccc2c(c1)OCO2", "note": "[Piperonal]", "Minimum Total Inhibitory Concentration (%)": 0.1}, {"compound": "CCC(=O)[O-].[Na+]", "note": "[Sodium Proprionate]", "Minimum Total Inhibitory Concentration (%)": ">0.5"}, {"compound": "CCCCC(=O)O", "note": "[Valeric Acid]", "Minimum Total Inhibitory Concentration (%)": 0.1}, {"compound": "Cc1cc(O)cc2c1O[C@](C)(CCC[C@H](C)CCC[C@H](C)CCCC(C)C)CC2", "note": "[Delta Tocopherol]", "Minimum Total Inhibitory Concentration (%)": ">0.5"}, {"compound": "O=C(O)CCCCC(=O)O", "note": "[Adipic Acid]", "Minimum Total Inhibitory Concentration (%)": ">0.5"}, {"compound": "C=C(C)[C@H]1CC=C(C)CC1", "note": "[Limonene]", "Minimum Total Inhibitory Concentration (%)": ">0.5"}, {"compound": "CCO", "note": "[Ethanol]", "Minimum Total Inhibitory Concentration (%)": ">0.5"}, {"compound": "CC(=O)[O-].[Na+]", "note": "[Sodium Acetate]", "Minimum Total Inhibitory Concentration (%)": ">0.5"}, {"compound": "CC(=O)O.CC(=O)[O-].[Na+]", "note": "[Sodium Diacetate]", "Minimum Total Inhibitory Concentration (%)": 0.5}, {"compound": "O=P(O)(O)O", "note": "[Phosphoric Acid]", "Minimum Total Inhibitory Concentration (%)": 0.5}, {"compound": "O=S([O-])[O-].[Na+].[Na+]", "note": "[Sodium Sulfite]", "Minimum Total Inhibitory Concentration (%)": ">0.5"}, {"compound": "Stearyl Citrate", "Minimum Total Inhibitory Concentration (%)": ">0.5"}, {"compound": "N[C@@H](Cc1c[nH]c2ccccc12)C(=O)O", "note": "[Tryptophan]", "Minimum Total Inhibitory Concentration (%)": ">0.5"}, {"compound": "N[C@@H](CS)C(=O)O", "note": "[Cysteine]", "Minimum Total Inhibitory Concentration (%)": ">0.5"}, {"compound": "CC(=O)O", "note": "[Acetic Acid]", "Minimum Total Inhibitory Concentration (%)": 0.2}, {"compound": "O=P([O-])(O)O.[Na+]", "note": "[Sodium bi-Phosphate]", "Minimum Total Inhibitory Concentration (%)": ">0.5"}, {"compound": "COc1cc(C=O)ccc1O", "note": "[Vanillin]", "Minimum Total Inhibitory Concentration (%)": 0.1}, {"compound": "O=C([O-])[C@H](O)[C@@H](O)[C@H](O)[C@H](O)CO.[Na+]", "note": "[Sodium Gluconate]", "Minimum Total Inhibitory Concentration (%)": ">0.5"}, {"compound": "Cc1cc(C(C)(C)C)c(O)c(C(C)(C)C)c1", "note": "[BHT (Butylated HydroxyToluene), Butylated HydroxyToluene]", "Minimum Total Inhibitory Concentration (%)": ">0.5"}, {"compound": "O=P([O-])([O-])OP(=O)([O-])[O-].[Na+].[Na+].[Na+].[Na+]", "note": "[Sodium Pyrophosphate]", "Minimum Total Inhibitory Concentration (%)": ">0.5"}, {"compound": "Cc1c(C)c2c(c(C)c1O)CC[C@@](C)(CCC[C@H](C)CCC[C@H](C)CCCC(C)C)O2", "note": "[Alpha Tocopherol]", "Minimum Total Inhibitory Concentration (%)": ">0.5"}, {"compound": "COc1ccc(O)c(C(C)(C)C)c1", "note": "[BHA (Butylated HydroxyAnisole), Butylated HydroxyAnisole]", "Minimum Total Inhibitory Concentration (%)": 0.025}, {"compound": "CC(=O)C(C)O", "note": "(centres unmarked) [3-Hydroxy-2-Butanone]", "Minimum Total Inhibitory Concentration (%)": ">0.5"}, {"compound": "C/C=C/C=C/C(=O)[O-].[K+]", "note": "[Potassium Sorbate]", "Minimum Total Inhibitory Concentration (%)": ">0.5"}, {"compound": "O=C([O-])CC(O)(CC(=O)[O-])C(=O)[O-].[Na+].[Na+].[Na+]", "note": "[Sodium Citrate]", "Minimum Total Inhibitory Concentration (%)": ">0.5"}, {"compound": "O=C(O)CCO", "note": "[3-Hydroxypropionic Acid]", "Minimum Total Inhibitory Concentration (%)": ">0.5"}, {"compound": "CC=O", "note": "[Acetaldehyde]", "Minimum Total Inhibitory Concentration (%)": ">0.2"}, {"compound": "O=C(O)CO", "note": "[Glycolic Acid]", "Minimum Total Inhibitory Concentration (%)": ">0.5"}, {"compound": "O=P1([O-])OP(=O)([O-])OP(=O)([O-])OP(=O)([O-])OP(=O)([O-])OP(=O)([O-])O1.[Na+].[Na+].[Na+].[Na+].[Na+].[Na+]", "note": "[Sodium Hexametaphosphate]", "Minimum Total Inhibitory Concentration (%)": ">0.5"}, {"compound": "CC(=O)C1C(=O)C=C(C)OC1=O", "note": "(centres unmarked) [Dehydroacetic Acid]", "Minimum Total Inhibitory Concentration (%)": 0.01}, {"compound": "O=S(=O)([O-])[O-].[Cu+2]", "note": "[Copper Sulfate]", "Minimum Total Inhibitory Concentration (%)": 0.05}, {"compound": "O=C(O)[C@H](O)[C@@H](O)[C@H](O)[C@H](O)CO", "note": "[Gluconic Acid]", "Minimum Total Inhibitory Concentration (%)": ">0.5"}, {"compound": "O=C(O)c1ccccc1", "note": "[Benzoic Acid]", "Minimum Total Inhibitory Concentration (%)": 0.1}, {"compound": "O=C(O)CC(=O)O", "note": "[Malonic Acid]", "Minimum Total Inhibitory Concentration (%)": ">0.5"}, {"compound": "O=S([O-])S(=O)(=O)[O-].[Na+].[Na+]", "note": "[Sodium Metabisulfite]", "Minimum Total Inhibitory Concentration (%)": 0.1}, {"compound": "OB(O)O", "note": "[Boric Acid]", "Minimum Total Inhibitory Concentration (%)": 0.5}, {"compound": "O=C([O-])c1ccccc1.[K+]", "note": "[Potassium Benzoate]", "Minimum Total Inhibitory Concentration (%)": ">0.5"}, {"compound": "O=C1O[C@H]([C@@H](O)CO)C(O)=C1O", "note": "[Ascorbic Acid]", "Minimum Total Inhibitory Concentration (%)": ">0.5"}, {"compound": "CCCCCCCCCCCCCCCC[n+]1ccccc1.[Cl-]", "note": "[Hexadecylpyridinium Cl]", "Minimum Total Inhibitory Concentration (%)": 0.2}, {"compound": "O=C([O-])c1ccccc1.[Na+]", "note": "[Sodium Benzoate]", "Minimum Total Inhibitory Concentration (%)": ">0.5"}, {"compound": "CCC(=O)[O-].CCC(=O)[O-].[Ca+2]", "note": "[Calcium Propionate]", "Minimum Total Inhibitory Concentration (%)": ">0.5"}, {"compound": "OO", "note": "[Hydrogen Peroxide]", "Minimum Total Inhibitory Concentration (%)": 0.1}, {"compound": "CCCOC(=O)c1ccc(O)cc1", "note": "[Propyl Paraben]", "Minimum Total Inhibitory Concentration (%)": 0.015}]}]}
